Columns and labels:
[1] = system: A172 cells; experiment: MTT cytotoxicity assay, A172; assay type: cell-based, human; details: for IC50: Homo sapiens, A 172, 72 h, MTT; for Selectivity Index (SI): IC50 in normal cell line (HT-22)/IC50 in A172
Method: (§1) Cell viability after treatments with selenylated imidazo[1,2-a]pyridines (IP-Se-01–IP-Se-10) was analyzed by quantitative colorimetric assay with MTT, according to Mosmann. IP-01, a prototype molecule without the addition of the selenium in its structure, was also tested. A172 and HT-22 cells were cultured in 96-well plates (10^4 cells/well). After confluence, cells were exposed to selenylated imidazo[1,2-a]pyridines (0.1, 1, 10, 100, and 1000 μM) for up to 72 h. After this phase, cell medium was removed and the cells were washed twice with PBS and incubated with MTT solution (0.5 mg/mL) for 2 h. The insoluble formazan was dissolved by adding DMSO (100 μL/well), and colorimetric determination of MTT reduction was measured at 550 nm in a multireader Infinite M200 Tecan. Three independent experiments were conducted, and the results are presented as IC50 (half maximal inhibitory concentration).

[2] = system: HT-22 cells; experiment: MTT cytotoxicity assay, HT-22; assay type: cell-based, mouse; details: 72 h; for IC50: Mus musculus, HT-22, MTT
Method: as §1

[3] = system: thioredoxin reductase (TrxR); experiment: Thioredoxin reductase activity in A172 cells (DTNB reduction); assay type: cell-based, human; details: 1 μM, 6 h, vs control
Method: (§2) To determine thioredoxin reductase (TrxR) activity and levels of reduced glutathione (GSH), glioblastoma cells were plated (4 × 10^5/well) into 12-well plates. At confluence, the cells were exposed at low concentration to IP-Se-06 (1 μM) for 6 h. After treatment time, cells were washed twice with PBS and resuspended with PBS/Triton 1%, centrifuged at 5000 g for 5 min and the supernatants were used for the determinations. All results were normalized by the protein content using the Bradford method.
TrxR activity was determined in A172 cells according to the method previously described by Arnér and collaborators, measuring the NADPH-dependent DTNB reduction to TNB (5-thio-2-nitrobenzoic acid) promoted by TrxR activity. The content of TNB derived from free thiols was measured at 412 nm. The enzyme activity was expressed as μmol·min^−1·mg protein^−1.

[4] = system: reduced glutathione (GSH); experiment: Reduced glutathione level in A172 cells (o-phthalaldehyde); assay type: cell-based, human; details: 1 μM, 6 h, vs control
Method: as §2
GSH was determined according to Hissin and Hilf using the fluorescent probe o-phthalaldehyde, which binds to free -SH groups forming the GS-OPT complex. This complex can be determined by fluorescence excitation at 350 nm and emission at 420 nm. Determinations were expressed in μGSH/μg protein.

[5] = system: NRF2; experiment: Western blotting NRF2, A172 cells; assay type: cell-based, human; details: 1 μM, vs control
Method: (§3) After treatment with IP-Se-06 (1 μM) for 48 h, A172 cells were harvested with a lysis buffer. The lysates were collected, and the total proteins present in the lysates were quantified according to Lowry. Proteins present in the cell lysates (30 μg) were subjected to SDS-polyacrylamide gel electrophoresis, followed by electroblotting to polyvinylidene fluoride (PVDF) membranes. Nonspecific binding was blocked by incubating the membrane with skimmed milk in TBS buffer containing 0.1% Tween 20 (TBS-T) for 1 h. After primary antibody incubation, membranes were incubated with appropriate HRP-conjugated secondary antibodies for 1 h at room temperature. Immunodetection was performed using an enhanced chemiluminescence (ECL) detection kit. Protein bands were visualized using ChemiDoc MP Imaging System (Bio-Rad) and quantified by densitometry using the freeware ImageJ by Wayne Rasband from the National Institute of Health (USA).

[6] = system: A172 cells; experiment: Mitochondrial membrane potential (TMRE); assay type: cell-based, human; details: 1 μM, 6 h, vs control
Method: The loss of mitochondrial transmembrane potential was analyzed using the fluorescent probe TMRE according to as proposed by O'Reilly and collaborators, with modifications. A172 cells (4 × 10^5/well) were plated in 12-well plates. After confluence, the cells were treated with IP-Se-06 (1 μM) for 6 h. After treatment, the cells were washed once with HBSS and incubated with TMRE (1 μM) at 37°C for 20 min. Lastly, the cells were washed with HBSS and the fluorescence intensity was measured at excitation peak of 549 nm and emission of 575 nm.

[7] = system: A172 cells; experiment: Chromatin condensation detection (DAPI); assay type: cell-based, human; details: 1 μM, 72 h
Method: DAPI was used to analyze changes in the nuclear morphology of apoptotic cells after DNA damage. A172 cells (0.5 × 10^4/well) in 24-well plates were treated with IP-Se-06 (1 μM) for 72 h. The cells were then fixed with 4% paraformaldehyde for 10 min at 4°C. The fixed cells were washed three times with PBS (pH 7.4) and stained with DAPI (3 μg/mL) in PBS at 37°C for 10 min. Finally, the cells were washed in PBS, and nuclear morphology was photographed by a fluorescence Olympus IX83 microscope.

[8] = system: A172 cells; experiment: Assessment of cell death (acridine orange plus propidium iodide); assay type: cell-based, human; details: 1 μM, 72 h, vs nontreated
Method: The cells were seeded (density of 2 × 10^5/well) into 6-well plates. After confluence, cells were treated with IP-Se-06 (1 μM) for 72 h. After this period, tumor cells were washed with PBS, trypsinized, centrifuged at 1500 g for 5 min, resuspended in PBS, and stained with a solution (6 μL, 1 : 1) of acridine orange (100 μg/mL) plus propidium iodide (100 μg/mL). This staining is used to analyze nuclear changes that characterize apoptotic and necrotic cells according to McGahon and collaborators. Cells (300/glass slide) from triplicates were observed under a fluorescence microscope (Olympus BX41) and categorized as viable, apoptotic, or necrotic.

[9] = system: cytochrome c; experiment: Western blotting cytochrome c (cytosolic fraction), A172 cells; assay type: cell-based, human; details: 1 μM, vs control
Method: as §3

[10] = system: γ-H2AX; experiment: Western blotting γ-H2AX, A172 cells; assay type: cell-based, human; details: 1 μM, vs control
Method: as §3

[11] = system: p53; experiment: Western blotting p53, A172 cells; assay type: cell-based, human; details: 1 μM, vs control
Method: as §3

[12] = system: Bcl-xL; experiment: Western blotting Bcl-xL, A172 cells; assay type: cell-based, human; details: 1 μM, vs control
Method: as §3

[13] = system: A172 cells; experiment: Cell cycle analysis (PI, flow cytometry); assay type: cell-based, human; details: 1 μM, 72 h, vs untreated
Method: The PI/RNAse solution from the Immunostep® kit (Salamanca, Spain) was used to determine the DNA content of cells of the different phases of cell cycle by flow cytometry using the protocol proposed by the manufacturer. A172 cells were plated on 6-well plates at a density of 2 × 10^5/well until confluence and synchronization with nocodazole (30 ng/mL) for 14 h. The cells were treated with IP-Se-06 (1 μM) for 72 h, carefully washed with PBS, and fixed in cold ethanol (70%) overnight at -20°C. Finally, cells were washed again, resuspended in PI/RNAse solution, and incubated for 15 min at room temperature. Cells were analyzed using a BD FACSCanto II (BD Biosciences) flow cytometer. Data were processed using Flowing Software 2.5.1.

[14] = system: Akt; experiment: Western blotting Akt, A172 cells; assay type: cell-based, human; details: 1 μM, 48 h, vs control
Method: as §3

[15] = system: p-Akt; experiment: Western blotting p-Akt, A172 cells; assay type: cell-based, human; details: 1 μM, 48 h, vs control
Method: as §3

[16] = system: mTOR; experiment: Western blotting mTOR, A172 cells; assay type: cell-based, human; details: 1 μM, 48 h, vs control
Method: as §3

[17] = system: HIF-1α; experiment: Western blotting HIF-1α, A172 cells; assay type: cell-based, human; details: 1 μM, 48 h, vs control
Method: as §3

[18] = system: HIF-1α; experiment: Immunocytochemistry staining for HIF-1α localization; assay type: cell-based, human; details: 1 μM, 48 h
Method: A172 cells were treated with IP-Se-06 (1 μM) for 48 h, fixed with paraformaldehyde (4%) for 15 min and washed three times with PBS. The cells were then treated with blocking solution (0.5% BSA in PBS containing 0.3% of triton X-100) for 1 h at room temperature and incubated with rabbit polyclonal primary antibody HIF-1α (Cat. sc-10790, dilution 1 : 500) overnight at 4°C. Following this, the cells were washed three times with PBS and incubated with secondary antibody polyclonal goat anti-rabbit IgG antibody (Cat. AP132P, dilution 1 : 1000) for 1 h. The cell nuclei were stained with DAPI (3 μg/mL). The cell images were acquired from ten randomly chosen fields for each condition using an Olympus IX83 fluorescent microscope.

[19] = system: A172 cells; experiment: Clonogenic assay; assay type: cell-based, human; details: 1 μM, 72 h
Method: To analyze the ability of the organoselenium compound to prevent cell proliferation and the progression of tumorigenesis, the methodology proposed by Franken and collaborators was used. In total, 500 cells per well were seeded in 6-well plates for 24 h. Before treatment with IP-Se-06, two groups were treated with the mitogen-activated protein kinase/ERK kinase inhibitor U0126 (Cell Signaling Technology, USA, Cat. #9903) at 10 μM for 1 h. A172 cells were exposed to IP-Se-06 (1 μM), while untreated cells were maintained as a control. After 72 h of incubation, the cells were washed with PBS, and fresh growth medium DMEM-F12 was added. At 7 days after treatment, colonies were fixed with 10% ethanol, stained with 0.5% crystal violet stain solution, manually counted, and photographed. Finally, cells were discolored with 1 mL of acetic acid 10% for 10 min, and the absorbance was measured at 590 nm in a multireader (Infinite M200 TECAN).

[20] = system: ERK 1/2; experiment: Western blotting ERK 1/2, A172 cells; assay type: cell-based, human; details: 1 μM, 48 h
Method: as §3

[21] = system: p38 MAPK; experiment: Western blotting p38, A172 cells; assay type: cell-based, human; details: 1 μM, 48 h, vs control
Method: as §3

[22] = system: p-p38; experiment: Western blotting p-p38, A172 cells; assay type: cell-based, human; details: 1 μM, 48 h, vs control
Method: as §3

[23] = system: NLRP3; experiment: Western blotting NLRP3, A172 cells; assay type: cell-based, human; details: 1 μM, 48 h, vs control
Method: as §3

[24] = system: caspase-1; experiment: Western blotting caspase-1, A172 cells; assay type: cell-based, human; details: 1 μM, 48 h, vs control
Method: as §3

[25] = system: Ehrlich ascitic carcinoma; parameters: method as in PMID 33125183; details: 1 mg/kg, Ehrlich ascitic carcinoma-bearing mice; cited from earlier work

COc1ccccc1[Se]c1c(-c2ccccc2)nc2cc(C)ccn12 [IP-Se-06, 3-((2-methoxyphenyl)selanyl)-7-methyl-2-phenylimidazol[1,2-a]pyridine]
approximate IC25 value ([1]; A172, concentration used in further experiments): ~1 µM
IC50 [1]: 1.8 µM
Selectivity Index (SI) [1]: 36.5
cytotoxic activity on the mouse hippocampal cell line ([2]; in words): no significant cytotoxic activity
IC50 [2]: 65 µM
TrxR intracellular activity [3]: significantly decreased
levels of GSH [4]: significantly decreased
levels of NRF2 protein [5]: decreased
ΔΨm, TMRE fluorescence intensity [6]: reduced
nuclear morphology (DAPI) [7]: brightly stained and condensed nuclei
apoptosis (acridine orange plus propidium iodide) [8]: able to induce apoptosis
levels of cytochrome c [9]: increased
levels of γ-H2AX [10]: increased
levels of p53 [11]: increased
levels of Bcl-xL [12]: decreased
G2/M phase cell population [13]: decrease
S phase [13]: no significant effect
cell population in the G1 phase [13]: increased
cell proportion in sub-G1 peak [13]: increased
levels of Akt [14]: significant reduction
levels of p-Akt [15]: significant reduction
levels of mTOR [16]: significant reduction
HIF-1α levels [17]: significantly decreased
HIF-1α localization [18]: seemed not to be translocated to the nucleus
number of cells in the colonies (absorbance 590 nm) ([19]; concomitantly with U0126 10 μM 1 h, vs treatments alone): even lower
number of cells in the colonies (absorbance 590 nm) ([19]; vs control): decreased
rate of colony formation ([19]; vs nontreated): decreased
ERK 1/2 levels ([20]; combination with U0126 10 μM 1 h, vs nontreated and U0126 alone): synergistic inhibition
ERK 1/2 levels ([20]; vs control): important reduction
levels of p38 [21]: significantly decreased
phosphorylation of p38 (p-p38) [22]: significantly decreased
levels of NLRP3 [23]: decreased
levels of caspase-1 [24]: decreased
angiogenesis [25]: inhibited angiogenesis
tumor growth [25]: growth inhibition of tumor

Cc1ccn2cc(-c3ccccc3)nc2c1 [IP-01]
IC50 [1]: 76.3 µM
Selectivity Index (SI) [1]: 2.0
IC50 [2]: 153 µM

Cc1ccn2c([Se]c3ccccc3)c(-c3ccccc3)nc2c1 [IP-Se-01]
IC50 [1]: 98.8 µM
Selectivity Index (SI) [1]: 0.7
IC50 [2]: 75.4 µM

c1ccc([Se]c2c(-c3ccccc3)nc3ncccn23)cc1 [IP-Se-09]
IC50 [1]: 21.8 µM
Selectivity Index (SI) [1]: 0.3
IC50 [2]: 6 µM

Cc1ccn2c([Se]c3cccs3)c(-c3ccccc3)nc2c1 [IP-Se-07]
IC50 [1]: 27.9 µM
Selectivity Index (SI) [1]: 0.4
IC50 [2]: 10.7 µM

CCCC[Se]c1c(-c2ccccc2)nc2cc(C)ccn12 [IP-Se-08]
IC50 [1]: 20.9 µM
Selectivity Index (SI) [1]: 1.5
IC50 [2]: 31.2 µM

Reference: publication PMC8964227, “IP-Se-06, a Selenylated Imidazo[1,2-a]pyridine, Modulates Intracellular Redox State and Causes Akt/mTOR/HIF-1α and MAPK Signaling Inhibition, Promoting Antiproliferative Effect and Apoptosis in Glioblastoma Cells” (Oxidative Medicine and Cellular Longevity, 2022)
